# Test system: 485368-065-R3-J5-PDC spheroids with HUVEC/MSC, viability
# Experiment: Anticancer human tumor 485368-065-R3-J5-PDC patient-derived pancreatic carcinoma cell line growth inhibition [RAS]
# Details: for IC50: curve of first compound; for viability, T/C: stronger effect = lower value
# Summary of the method: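 Agents were tested in combination matrices in half-log decrements from a top concentration at or near clinical Cmax (10 microM if undetermined). Targets were multi-cell spheroids of tumour lines plus HUVEC and MSC stromal cells.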
# [1] = second compound 0.00316 µM, first compound 0.0316 µM
# [2] = second compound 0.00316 µM, first compound 0.1 µM
# [3] = second compound 0.00316 µM, first compound 0.316 µM
# [4] = second compound 0.00316 µM, first compound 1 µM
# [5] = second compound 0.00316 µM, first compound 3.16 µM
# [6] = second compound 0.00316 µM, first compound 10 µM
# [7] = second compound 0.01 µM, first compound 0.0316 µM
# [8] = second compound 0.01 µM, first compound 0.1 µM
# [9] = second compound 0.01 µM, first compound 0.316 µM
# [10] = second compound 0.01 µM, first compound 1 µM
# [11] = second compound 0.01 µM, first compound 3.16 µM
# [12] = second compound 0.01 µM, first compound 10 µM
# [13] = second compound 0.0316 µM, first compound 0.0316 µM
# [14] = second compound 0.0316 µM, first compound 0.1 µM
# [15] = second compound 0.0316 µM, first compound 0.316 µM
# [16] = second compound 0.0316 µM, first compound 1 µM
# [17] = second compound 0.0316 µM, first compound 3.16 µM
# [18] = second compound 0.0316 µM, first compound 10 µM
# [19] = second compound 0.1 µM, first compound 0.0316 µM
# [20] = second compound 0.1 µM, first compound 0.1 µM
# [21] = second compound 0.1 µM, first compound 0.316 µM
# [22] = second compound 0.1 µM, first compound 1 µM
# [23] = second compound 0.1 µM, first compound 3.16 µM
# [24] = second compound 0.1 µM, first compound 10 µM
# [25] = second compound 0.316 µM, first compound 0.0316 µM
# [26] = second compound 0.316 µM, first compound 0.1 µM
# [27] = second compound 0.316 µM, first compound 0.316 µM
# [28] = second compound 0.316 µM, first compound 1 µM
# [29] = second compound 0.316 µM, first compound 3.16 µM
# [30] = second compound 0.316 µM, first compound 10 µM
# [31] = second compound 1 µM, first compound 0.0316 µM
# [32] = second compound 1 µM, first compound 0.1 µM
# [33] = second compound 1 µM, first compound 0.316 µM
# [34] = second compound 1 µM, first compound 1 µM
# [35] = second compound 1 µM, first compound 3.16 µM
# [36] = second compound 1 µM, first compound 10 µM
# 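Also: spheroids exposed to agents for seven days before readout.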
structure (smiles),measurement,setting,value
CC(=O)OC12COC1CC(O)C1(C)C(=O)C(O)C3=C(C)C(OC(=O)C(O)C(NC(=O)OC(C)(C)C)c4ccccc4)CC(O)(C(OC(=O)c4ccccc4)C21)C3(C)C (centres undefined) + C=CC(=O)N1CCN(c2nc(OCC3CCCN3C)nc3c(F)c(-c4nc(N)cc(C)c4C(F)(F)F)c(Cl)cc23)C(C)C1,IC50,second compound 0.00316 µM,< 0.0316 µM
same,IC50,second compound 0.01 µM,< 0.0316 µM
same,IC50,second compound 0.0316 µM,< 0.0316 µM
same,IC50,second compound 0.1 µM,< 0.0316 µM
same,IC50,second compound 0.316 µM,< 0.0316 µM
same,IC50,second compound 1 µM,< 0.0316 µM
same,"viability, T/C",[1],14.1%
same,"viability, T/C",[2],12.1%
same,"viability, T/C",[3],13.5%
same,"viability, T/C",[4],12.9%
same,"viability, T/C",[5],13.9%
same,"viability, T/C",[6],18.2%
same,"viability, T/C",[7],11.4%
same,"viability, T/C",[8],10.3%
same,"viability, T/C",[9],11.2%
same,"viability, T/C",[10],11.9%
same,"viability, T/C",[11],11.9%
same,"viability, T/C",[12],21.3%
same,"viability, T/C",[13],13.2%
same,"viability, T/C",[14],9.68%
same,"viability, T/C",[15],12.2%
same,"viability, T/C",[16],16%
same,"viability, T/C",[17],16.2%
same,"viability, T/C",[18],19.9%
same,"viability, T/C",[19],10.6%
same,"viability, T/C",[20],10.8%
same,"viability, T/C",[21],13.7%
same,"viability, T/C",[22],10%
same,"viability, T/C",[23],17.6%
same,"viability, T/C",[24],20.2%
same,"viability, T/C",[25],9.72%
same,"viability, T/C",[26],13.7%
same,"viability, T/C",[27],11.7%
same,"viability, T/C",[28],13%
same,"viability, T/C",[29],22.9%
same,"viability, T/C",[30],28.2%
same,"viability, T/C",[31],12.8%
same,"viability, T/C",[32],15.1%
same,"viability, T/C",[33],16.3%
same,"viability, T/C",[34],12.6%
same,"viability, T/C",[35],17.3%
same,"viability, T/C",[36],23.5%
Cc1nc(N2CCC3(CC2)COC(C)C3N)c(CO)nc1Sc1ccnc(N)c1Cl (centres undefined) + C=CC(=O)N1CCN(c2nc(OCC3CCCN3C)nc3c(F)c(-c4nc(N)cc(C)c4C(F)(F)F)c(Cl)cc23)C(C)C1,IC50,second compound 0.00316 µM,7.82 µM
same,IC50,second compound 0.01 µM,7.83 µM
same,IC50,second compound 0.0316 µM,> 10 µM
same,IC50,second compound 0.1 µM,> 10 µM
same,IC50,second compound 0.316 µM,> 10 µM
same,IC50,second compound 1 µM,> 10 µM
same,"viability, T/C",[1],101%
same,"viability, T/C",[2],84.3%
same,"viability, T/C",[3],83.6%
same,"viability, T/C",[4],68.2%
same,"viability, T/C",[5],57.7%
same,"viability, T/C",[6],47.6%
same,"viability, T/C",[7],91.7%
same,"viability, T/C",[8],89.4%
same,"viability, T/C",[9],85.1%
same,"viability, T/C",[10],72.8%
same,"viability, T/C",[11],64.6%
same,"viability, T/C",[12],45.9%
same,"viability, T/C",[13],97.4%
same,"viability, T/C",[14],93.1%
same,"viability, T/C",[15],66.8%
same,"viability, T/C",[16],61.5%
same,"viability, T/C",[17],63.1%
same,"viability, T/C",[18],61.7%
same,"viability, T/C",[19],86.4%
same,"viability, T/C",[20],81.7%
same,"viability, T/C",[21],75.6%
same,"viability, T/C",[22],75.6%
same,"viability, T/C",[23],70.7%
same,"viability, T/C",[24],53.1%
same,"viability, T/C",[25],98.5%
same,"viability, T/C",[26],89.7%
same,"viability, T/C",[27],79.9%
same,"viability, T/C",[28],77%
same,"viability, T/C",[29],65.5%
same,"viability, T/C",[30],51.2%
same,"viability, T/C",[31],97.3%
same,"viability, T/C",[32],95.8%
same,"viability, T/C",[33],80.3%
same,"viability, T/C",[34],73.1%
same,"viability, T/C",[35],58.7%
same,"viability, T/C",[36],50.1%
